Experimental data taken from patent US7807781B2, “Inhibitors of serine protease activity and their use in methods and compositions for treatment of viral infections” (The Regents of the University of Colorado, priority 1999, dated 2010).
Read-outs that look alike come from different tables or passages of the source.

Key:
[1] = test system: NF-κB; assay: IL-18-induced NF-κB expression; assay type: cell-based; settings: compared with IL-18 alone (lane 4)
[2] = test system: HIV-1 production in U1 cells; assay: U1 monocytic cell assay, TNF-induced HIV-1 p24 antigen; assay type: cell-based; settings: for TNF-induced p24 antigen: 3.0 ng/ml TNF
[3] = test system: HIV-1 strain A018A in MAGI-CCR-5 cells; assay type: cell-based; settings: for mean positive cell count: +HIV-1; for inhibition of MAGI-CCR-5 cell early infection events: compared to HIV-1 alone
[4] = test system: HIV-1 production in U1 cells; assay: U1 monocytic cell assay, IL-6-induced HIV-1 p24 antigen; assay type: cell-based; settings: for p24 antigen: 100 ng/ml IL-6
[5] = test system: HIV-1 production in U1 cells; assay: U1 monocytic cell assay, IL-18-induced HIV-1 p24 antigen; assay type: cell-based; settings: for p24 production: 0.5 nM IL-18, 48 hr
Source text: U1 monocytic cell assay. U1 cells are obtained from the AIDS Research and Reference Reagent Program, National Institute of Allergy and Infectious Diseases, NIH. U1 cells are maintained in T-175 polystyrene flasks (Falcon, Becton Dickinson, Franklin Lakes, N.J.) in medium and used when in log phase growth. Cells are counted in a hemacytometer, examined for viability by Trypan blue exclusion (>95% for all experiments) and resuspended in fresh medium at 2×10^6 per ml. Two-hundred fifty […] are added to wells of 24-well polystyrene tissue culture plates (Falcon), followed by the addition of medium or AAT to produce the final concentration to be tested in a volume of […]. After 1.0 hr of incubation (37° C., 5% CO2), 50 ml of medium (control) or stimulus diluted in medium are added to wells to produce the final concentration of stimulus to be tested. The final culture volumes are […] and contained 1×10^6 cells per ml. After 48 hr of incubation (37° C. and 5% CO2) 50 ml of 10% (vol/vol) Triton-X-100 (Fisher Scientific, Fair Lawn, N.J.) is added to each culture (final concentration of 1% vol/vol), and cultures are frozen and thawed once. This is followed by assay for HIV-1 p24 antigen by ELISA with a lower limit of detection of 31 pg/ml (NCI-Frederick Cancer Research and Development Center, Frederick, Md.). The disruption of cells due to the addition of Triton-X-100 and the freeze-thaw cycle produced cell lysates and enabled assessment of total (secreted and cell-associated) production of p24 antigen.
Data are presented as means±SEM. Group means are compared by ANOVA using Fisher's least significant difference. For data expressed as percent change, the values for p24 in control cultures (medium alone) are subtracted from those for each culture-containing stimulus. The p24 concentrations in cultures conducted in the presence of stimulus alone are set at 100%. Percent p24 in cultures containing stimulus and AAT are calculated by dividing the measured p24 by that present in cultures containing stimulus alone. The resultant fraction is expressed as a percent.
The U1 cell line is derived from human monocytic U937 cells into which 2 copies of HIV-1 provirus are incorporated into host genome. Exposing U1 cells to pro-inflammatory cytokines such as IL-18, IL-1, IL-6 and TNF, phorbol esters or hyperosmolarity results in the induction of HIV-1 as assessed by p24 antigen. Stimulation of U1 cells with 0.5 nM IL-18 induced large amounts of p24 antigen after 48 hr of incubation in 3 separate experiments. U1 cells cultured in medium alone (control) contained a mean of 41.3±11.5 pg/ml p24 antigen, which is increased 150-fold to 6,235±1,775 pg/ml p24 following stimulation with IL-18. […] At 1, 2 and 3 mg/ml AAT, the percent reductions observed compared to stimulation with IL-18 alone are 65±1.8, 93±3.0 and 98±1%, respectively.

[6] = test system: HIV-1 production in U1 cells; assay: U1 monocytic cell assay, NaCl (hyperosmolarity)-induced HIV-1 p24 antigen; assay type: cell-based
[7] = test system: U1 cells; assay: U1 cell proliferation and viability (hemacytometer, trypan blue exclusion); assay type: cell-based, human; settings: 5 mg/ml AAT, 48 hrs
Procedure: To evaluate the effect of AAT on U1 cell proliferation and viability, 3 experiments are performed in the presence or absence of 5 mg/ml AAT. U1 cells are added at 1×10^6 cells per ml and cultured for 48 hrs. Following incubation, cells are quantified using a hemacytometer. The mean±SEM cell concentrations in control and AAT-containing cultures are 2.5×10^6±0.5×10^6 and 2.4×10^6±0.3×10^6 respectively. […] For all cultures, cell viability by trypan blue exclusion is >95%. The lack of toxicity is illustrated in FIG. 13.

[8] = test system: HIV-1 production in U1 cells; assay: U1 monocytic cell assay, LPS-induced HIV-1 p24 antigen; assay type: cell-based; settings: for p24 antigen: 500 ng/ml LPS, 48 hrs

AAT: Alpha-1-antitrypsin purified from the blood of healthy volunteers to single-band homogeneity
IL-18-induced NF-κB expression [1]: reduced | TNF-induced p24 antigen ([2]; AAT 0.1 mg/ml): 16,405±8,449 pg/ml | TNF-induced p24 antigen ([2]; AAT 0.5 mg/ml): 16,863±7,718 pg/ml | TNF-induced p24 antigen ([2]; AAT 1 mg/ml): 15,328±7,129 pg/ml | TNF-induced p24 antigen ([2]; AAT 2 mg/ml): 12,566±4,981 pg/ml | TNF-induced p24 antigen ([2]; AAT 3 mg/ml): 9,341±2,730 pg/ml | TNF-induced p24 antigen ([2]; AAT 4 mg/ml): 9,091±3,436 pg/ml | TNF-induced p24 antigen ([2]; AAT 5 mg/ml): 6,868±2,737 pg/ml | mean percent reduction in TNF-induced p24 antigen ([2]; AAT 3 mg/ml): 56% | mean percent reduction in TNF-induced p24 antigen ([2]; AAT 4 mg/ml): 60% | mean percent reduction in TNF-induced p24 antigen ([2]; AAT 5 mg/ml): 73% | mean positive cell count ([3]; AAT 0.1 mg/ml): 74±13 | mean positive cell count ([3]; AAT 1.0 mg/ml): 75±17 | mean positive cell count ([3]; AAT 3.0 mg/ml): 45±12 | mean positive cell count ([3]; AAT 4.0 mg/ml): 28±9 | mean positive cell count ([3]; AAT 5.0 mg/ml): 21±12 | inhibition of MAGI-CCR-5 cell early infection events ([3]; AAT 2.0 mg/ml): 23% | inhibition of MAGI-CCR-5 cell early infection events ([3]; AAT 3.0 mg/ml): 41% | inhibition of MAGI-CCR-5 cell early infection events ([3]; AAT 4.0 mg/ml): 66% | inhibition of MAGI-CCR-5 cell early infection events ([3]; AAT 5.0 mg/ml): 76% | p24 antigen ([4]; AAT 0.1 mg/ml): 6,228±2,129 pg/ml | p24 antigen ([4]; AAT 0.5 mg/ml): 3,992±1,987 pg/ml | p24 antigen ([4]; AAT 1 mg/ml): 3,850±1,943 pg/ml | p24 antigen ([4]; AAT 2 mg/ml): 2,597±1,253 pg/ml | p24 antigen ([4]; AAT 3 mg/ml): 2,155±1,085 pg/ml | p24 antigen ([4]; AAT 4 mg/ml): 1,838±881 pg/ml | p24 antigen ([4]; AAT 5 mg/ml): 1,213±668 pg/ml | mean percent reduction of IL-6-induced p24 ([4]; AAT 3 mg/ml): 80% | mean percent reduction of IL-6-induced p24 ([4]; AAT 4 mg/ml): 88% | mean percent reduction of IL-6-induced p24 ([4]; AAT 5 mg/ml): 100% | p24 production ([5]; AAT 0.1 mg/ml): 6,879±207 pg/ml | p24 production ([5]; AAT 0.5 mg/ml): 3,687±968 pg/ml | p24 production ([5]; AAT 1 mg/ml): 2,029±625 pg/ml | p24 production ([5]; AAT 2 mg/ml): 452 ± 209 pg/mL | p24 production ([5]; AAT 3 mg/ml): 179 ± 79 pg/mL | percent reduction of p24 compared to IL-18 alone ([5]; AAT 1 mg/ml): 65±1.8% | percent reduction of p24 compared to IL-18 alone ([5]; AAT 2 mg/ml): 93±3.0% | percent reduction of p24 compared to IL-18 alone ([5]; AAT 3 mg/ml): 98±1% | range of inhibition of HIV-1 production in U1 cells ([5]; all stimuli tested (IL-18, IL-6, TNF, LPS, hyperosmolarity)): 73-100% | NaCl-induced 26-fold increase in p24 concentration ([6]; 60 mM NaCl, 5 mg/ml AAT): completely inhibited | mean p24 level ([6]; 60 mM NaCl, AAT 0.1 mg/ml): 11,054±3,231 pg/ml | mean p24 level ([6]; 60 mM NaCl, AAT 0.5 mg/ml): 7,363±485 pg/ml | mean p24 level ([6]; 60 mM NaCl, AAT 1.0 mg/ml): 5,657±48 pg/ml | mean p24 level ([6]; 60 mM NaCl, AAT 3.0 mg/ml): 1,919±594 pg/ml | mean p24 level ([6]; 60 mM NaCl, AAT 4.0 mg/ml): 425 ± 32 pg/mL | mean p24 level ([6]; 60 mM NaCl, AAT 5.0 mg/ml): 266 ± 26 pg/mL | percent inhibition of NaCl-induced p24 ([6]; AAT 3.0 mg/ml): 76% | percent inhibition of NaCl-induced p24 ([6]; AAT 4.0 mg/ml): 98.3% | percent inhibition of NaCl-induced p24 ([6]; AAT 5.0 mg/ml): 100% | cell viability by trypan blue exclusion [7]: > 95% | mean±SEM cell concentration after culture ([7]; 1×10^6 cells per ml added initially): 2.4×10^6±0.3×10^6 cells per ml | p24 antigen ([8]; AAT 1 mg/ml): 1,108±241 pg/ml | p24 antigen ([8]; AAT 2 mg/ml): 913 ± 287 pg/mL | p24 antigen ([8]; AAT 5 mg/ml): 626 ± 257 pg/mL | inhibition of LPS-induced p24 production ([8]; AAT 3 mg/ml): 71% | inhibition of LPS-induced p24 production ([8]; AAT 4 mg/ml): 90% | inhibition of LPS-induced p24 production ([8]; AAT 5 mg/ml): 86%
